Counter-ions that a name gives are not always drawn.
Key:
[1] = target: T1, 5-HT2C receptor (Homo sapiens, UniProt P28335); assay: Human 5-HT2C functional assay (beta-arrestin2 recruitment, U2OS_HTR2C_β-Arrestin cells); format: cell-based; details: for EC50: beta-arrestin2 recruitment, U2OS_HTR2C_β-Arrestin cells, 1.5 h incubation, read-out: EC50 5-HT2C (potency in functional assay); for Emax: relative efficacy vs response to 10 μM 5-HT or maximal 5-HT effect (100%)
T1 construct: host or cells: U2OS
Procedure: The functional activity of compounds of formula I was assayed by incubation with U2OS_HTR2C_β-Arrestin cells (DiscoverX, 93-0289C3) to induce beta-arrestin2 recruitment to the 5-HT2C receptor. The agonist-induced recruitment and proximity of the receptor and beta-arrestin2 leads to complementation and formation of active β-galactosidase. The enzyme complementation results in enzyme activity, which is measured following the termination of the agonist incubation using DiscoveRx's detection reagent, which contains a chemiluminescent substrate which produces a high intensity signal. Cells were plated and a medium-change to a 1% serum containing medium was performed 24h later. The next day, test compounds were added and incubated for 1.5 h before addition of detection reagent.
The response produced was measured and compared with the response produced by 10 [mu]M 5-HT or the maximal effect induced by 5-HT (defined as 100%) to which it was expressed as a percentage response (relative efficacy). Dose response curves were constructed using Graphpad Prism (Graph Software Inc.) or using in house adapted software using a 4 parameter dose response model with variable slope (fit=(Bottom+(Top-Bottom)/(1+10^∧((Log EC50−x)*HillSlope))res=(y-fit)). Results are compiled in the table below.

[2] = Metabolic stability in human liver microsomes, unbound intrinsic clearance (Cl int/fu mic); format: in vitro ADME; details: human, liver microsomes, pH 7.4, human liver microsomes 0.25 mg/mL, 0.5 μM compound, NADPH, read-out: Cl int, mic unb. (h) [l/h/kg] (unbound intrinsic clearance, human)
Procedure: Samples of the tested compounds (0.5 μM) were preincubated together with human liver microsomes (0.25 mg of microsomal protein/mL) in 0.05 M potassium phosphate buffer of pH 7.4 in microtiter plates at 37° C. for 5 minutes. The reaction was started by adding NADPH (1.0 mM). After 0, 5, 10, 15, 20 and 30 minutes, an aliquot was removed, the reaction was cooled and stopped by adding twice the amount of quench solution consisting of acetonitrile/methanol 1:1, and containing 0.2 μM carbutamide as internal standard. The samples were frozen until analyzed. The remaining concentration of undegraded test substance was determined by liquid chromatography-tandem mass spectrometry (LC-MS/MS). The half-life (t1/2) was determined from the gradient of the ratio of the signal of (test substance/internal standard)/unit time plot, allowing the calculation of the half-life of the test substance, assuming first order kinetics, from the decrease in the concentration of the compound with time. The microsomal clearance ([…]) was calculated as follows: […]=((ln(2)/t 1⁄2)/Microsomal Protein Concentration (mg/ml))*1000, leading to the unit of uL/min/mg. The scaled clearance (mClin_scaled) was calculated as […]_scaled=m CLint*(Microsomal Yield (mg/kg BW))/1000000*60, leading to the units L/h/kg. The Microsomal Yield is defined by the specifics of the used microsomes. Calculations were modified from references: Di, The Society for Biomolecular Screening, 2003, 453-462; Obach, D M D, 1999 vol 27. N 11, 1350-1359. A suspension of 0.25 mg/ml microsomal protein spiked with 0.5 μM of test compound was pipetted on one side of a HTDialysis device (HTDialysis LLC, 37 Ledgewood Drive, Gales Fery CT 06335) separated by a membrane with a MWcut off 12-14 K. 50 mM K-Phosphate buffer (pH 7.4) was added on the other side of the well. After incubation at 37° C. for 4 h while shaking at 150 rpm, aliquots of both sides were taken, quenched with MeOH/ACN 1:1 and 0.2 μM of internal standard and frozen until analysis by LCMSMS Cl int unbound=Cl int/fu mic

T1 sequence (P28335 33-458): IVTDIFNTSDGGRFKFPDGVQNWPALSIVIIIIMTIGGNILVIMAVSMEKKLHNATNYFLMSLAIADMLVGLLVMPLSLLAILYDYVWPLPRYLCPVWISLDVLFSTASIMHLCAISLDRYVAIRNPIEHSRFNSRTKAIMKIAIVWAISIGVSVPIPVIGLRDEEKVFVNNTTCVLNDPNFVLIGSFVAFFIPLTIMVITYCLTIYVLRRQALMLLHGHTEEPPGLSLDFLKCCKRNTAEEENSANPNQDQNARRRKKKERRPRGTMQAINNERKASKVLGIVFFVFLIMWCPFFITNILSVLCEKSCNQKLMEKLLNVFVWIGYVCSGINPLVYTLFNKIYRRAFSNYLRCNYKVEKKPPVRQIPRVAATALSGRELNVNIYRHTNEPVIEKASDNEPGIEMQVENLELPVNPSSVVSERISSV
T1 sequence (P32121 whole entry partner): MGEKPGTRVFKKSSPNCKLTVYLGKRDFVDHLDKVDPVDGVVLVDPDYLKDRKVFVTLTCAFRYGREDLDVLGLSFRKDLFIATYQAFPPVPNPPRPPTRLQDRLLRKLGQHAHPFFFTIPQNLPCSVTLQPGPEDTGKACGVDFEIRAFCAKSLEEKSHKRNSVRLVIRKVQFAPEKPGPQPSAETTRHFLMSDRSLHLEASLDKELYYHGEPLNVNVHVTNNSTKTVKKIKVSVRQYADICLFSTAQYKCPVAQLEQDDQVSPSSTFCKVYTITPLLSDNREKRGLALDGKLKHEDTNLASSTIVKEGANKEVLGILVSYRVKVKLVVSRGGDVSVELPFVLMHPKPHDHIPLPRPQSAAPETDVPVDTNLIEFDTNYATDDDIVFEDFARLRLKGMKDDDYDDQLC

Row | SMILES | EC50 [1] [nM] | Emax [1] [%] | CLint scaled at 0.5 μM [2] [L/h/kg]
1 | COc1nc(O[C@H]2CC[C@@H](C(F)(F)F)CC2)c(F)cc1CNC(=O)[C@@H]1CCCN1C [Example 19, (2S)—N-[[5-Fluoro-2-methoxy-6-[cis-4-(trifluoromethyl)cyclohexoxy]-3-pyridyl]methyl]-1-methyl-pyrrolidine-2-carboxamide; Fumaric Acid] | < 20 | > 70 | 5 to 50
2 | COc1nc(O[C@H]2CC[C@@H](C(F)(F)F)CC2)c(F)cc1CNC(=O)[C@@H]1CCCN1 [Example 20, (2S)—N-[[5-Fluoro-2-methoxy-6-[cis-4-(trifluoromethyl)cyclohexoxy]-3-pyridyl]methyl]pyrrolidine-2-carboxamide; Fumaric Acid] | < 20 | > 70 | 5 to 50
3 | COc1nc(OC2CCC(F)(F)C2)c(F)cc1CNC(=O)[C@@H]1CCCN1C (stereo partly drawn) [Example 23, (2S)—N-[[6-(3,3-Difluorocyclopentoxy)-5-fluoro-2-methoxy-3-pyridyl]methyl]-1-methyl-pyrrolidine-2-carboxamide; Fumaric Acid] | < 20 | > 70 | < 5
4 | COc1nc(OC2CCC(F)(F)C2)c(F)cc1CNC(=O)[C@@H]1CCCN1 (stereo partly drawn) [Example 24, (2S)—N-[[6-(3,3-Difluorocyclopentoxy)-5-fluoro-2-methoxy-3-pyridyl]methyl]-pyrrolidine-2-carboxamide; Fumaric Acid] | < 20 | > 70 | < 5
5 | COc1nc(OC[C@@H]2CCC(F)(F)C2)c(F)cc1CNC(=O)[C@H]1CCCN1C [Example 25, (2R)—N-[[6-[[(1R)-3,3-Difluorocyclopentyl]methoxy]-5-fluoro-2-methoxy-3-pyridyl]methyl]-1-methyl-pyrrolidine-2-carboxamide; Fumaric Acid] | 20 to 200 | 50 to 70 | < 5
6 | COc1nc(O[C@H]2CCC(F)(F)C2)c(F)cc1CNC(=O)[C@@H]1CCCN1C [Example 26, (2S)—N-[[6-[(1S)-3,3-Difluorocyclopentoxy]-5-fluoro-2-methoxy-3-pyridyl]methyl]-1-methyl-pyrrolidine-2-carboxamide Hydrochloride] | < 20 | > 70 | < 5
7 | COc1nc(O[C@@H]2CCC(F)(F)C2)c(F)cc1CNC(=O)[C@@H]1CCCN1C [Example 27, (2S)—N-[[6-[(1R)-3,3-Difluorocyclopentoxy]-5-fluoro-2-methoxy-3-pyridyl]methyl]-1-methyl-pyrrolidine-2-carboxamide Hydrochloride] | < 20 | > 70 | < 5
8 | COc1nc(O[C@H]2CC[C@H](F)CC2)c(F)cc1CNC(=O)[C@@H]1CCCN1C [Example 28, (2S)—N-[[5-Fluoro-6-(trans-4-fluorocyclohexoxy)-2-methoxy-3-pyridyl]methyl]-1-methyl-pyrrolidine-2-carboxamide; Fumaric Acid] | < 20 | > 70 | < 5
9 | COc1nc(O[C@H]2CC[C@@H](F)CC2)c(F)cc1CNC(=O)[C@@H]1CCCN1C [Example 29, (2S)—N-[[5-Fluoro-6-(cis-4-fluorocyclohexoxy)-2-methoxy-3-pyridyl]methyl]-1-methyl-pyrrolidine-2-carboxamide; Fumaric Acid] | < 20 | > 70 | < 5
10 | COc1nc(O[C@H]2CC[C@@H](F)CC2)c(F)cc1CNC(=O)[C@@H]1CCCN1 [Example 30, (2S)—N-[[5-Fluoro-6-(cis-4-fluorocyclohexoxy)-2-methoxy-3-pyridyl]methyl]-pyrrolidine-2-carboxamide; Fumaric Acid] | < 20 | > 70 | < 5
11 | COc1nc(O[C@H]2CC[C@H](F)CC2)c(F)cc1CNC(=O)[C@@H]1CCCN1 [Example 31, (2S)—N-[[5-Fluoro-6-(trans-4-fluorocyclohexoxy)-2-methoxy-3-pyridyl]methyl]-pyrrolidine-2-carboxamide; Fumaric Acid] | < 20 | > 70 | < 5
12 | COc1nc(OC[C@H]2CCC(F)(F)C2)c(F)cc1CNC(=O)[C@@H]1CCCN1 [Example 32, (2S)—N-[[6-[[(1S)-3,3-Difluorocyclopentyl]methoxy]-5-fluoro-2-methoxy-3-pyridyl]methyl]pyrrolidine-2-carboxamide; Fumaric Acid] | < 20 | 50 to 70 | < 5
13 | COc1nc(OC[C@@H]2CCC(F)(F)C2)c(F)cc1CNC(=O)[C@@H]1CCCN1 [Example 33, (2S)—N-[[6-[[(1R)-3,3-Difluorocyclopentyl]methoxy]-5-fluoro-2-methoxy-3-pyridyl]methyl]pyrrolidine-2-carboxamide; Fumaric Acid] | < 20 | > 70 | < 5
14 | COc1nc(OC2CCC(F)(F)CC2)c(F)cc1CNC(=O)[C@@H]1C[C@@H](F)CN1 [Example 34, (2S,4R)—N-[[6-(4,4-Difluorocyclohexoxy)-5-fluoro-2-methoxy-3-pyridyl]methyl]-4-fluoro-pyrrolidine-2-carboxamide; Fumaric Acid] | < 20 | > 70 | < 5
15 | COc1nc(OC2CCC(C(F)(F)F)CC2)c(F)cc1CNC(=O)[C@@H]1C[C@@H](F)CN1 (stereo partly drawn) [Example 35, (2S,4R)-4-Fluoro-N-[[5-fluoro-2-methoxy-6-[4-(trifluoromethyl)cyclohexoxy]-3-pyridyl]methyl]pyrrolidine-2-carboxamide; Fumaric Acid] | < 20 | > 70 | < 5
16 | COc1nc(OC2CCC(C(F)(F)F)CC2)c(F)cc1CNC(=O)[C@@H]1CCN1 (stereo partly drawn) [Example 36, (2S)—N-[[5-Fluoro-2-methoxy-6-[4-(trifluoromethyl)cyclohexoxy]-3-pyridyl]-methyl]azetidine-2-carboxamide; Succinic Acid] | < 20 | 50 to 70 | 5 to 50
17 | COc1nc(OC2CCC(F)(F)CC2)c(F)cc1CNC(=O)[C@@H]1CCN1 [Example 37, (2S)—N-[[6-(4,4-Difluorocyclohexoxy)-5-fluoro-2-methoxy-3-pyridyl]methyl]-azetidine-2-carboxamide; Succinic Acid] | < 20 | 50 to 70 | < 5
18 | COc1nc(OC2CCC(C(F)(F)F)CC2)c(F)cc1CNC(=O)[C@@H]1CCN1C (stereo partly drawn) [Example 38, (2S)—N-[[5-Fluoro-2-methoxy-6-[4-(trifluoromethyl)cyclohexoxy]-3-pyridyl]methyl]-1-methyl-azetidine-2-carboxamide; Succinic Acid] | 20 to 200 | 50 to 70 | 5 to 50
19 | COc1nc(OCCCC(F)(F)F)c(F)cc1CNC(=O)[C@@H]1CCCN1 [Example 40, (2S)—N-[[5-Fluoro-2-methoxy-6-(4,4,4-trifluorobutoxy)-3-pyridyl]methyl]-pyrrolidine-2-carboxamide; Succinic Acid] | < 20 | > 70 | < 5
20 | COc1nc(OCC2CC(F)(F)C2)c(F)cc1CNC(=O)[C@@H]1CCCN1 [Example 42, (2S)—N-[[6-[(3,3-Difluorocyclobutyl)methoxy]-5-fluoro-2-methoxy-3-pyridyl]-methyl]pyrrolidine-2-carboxamide; Succinic Acid] | < 20 | > 70 | < 5

— patent US20190062305A1, “PYRIDYL OR PYRAZINYL COMPOUNDS CARRYING A METHYL-BOUND ALPHA-AMINO ACID AMIDE GROUP” (ABBVIE DEUTSCHLAND GMBH & CO. KG, priority 2015, published 2019)
